Experimental data published in US12404289B2 (Gilead Sciences, Inc., priority 2020, dated 2025).
Where two headings read alike, the source gives them in different places.

Key:
Assay type in all cases: cell-based
SARS-CoV-2 = SARS-CoV-2 antiviral assay (A549-hACE2, Nano luciferase); settings: A549-hACE2 cells, SARS-CoV2-Nano, MOI 0.025, 48 h, Table 4, read-out: EC50 SARS CoV2
[1] = tested on: Respiratory syncytial virus recombinant with luciferase (RSV-Luc5); test: microbe, parasite or virus in culture; settings: Table 3
[2] = tested on: Recombinant respiratory syncytial virus expressing the firefly luciferase protein (RSV-Fluc); test: microbe, parasite or virus in culture; settings: Table 4
[3] = tested on: Respiratory syncytial virus (RSV) strain A2; test: Hep-2 RSV2 384-well assay (EC50-HEP2-384); settings: HEp-2 cells, RSV A2, MOI=4, 4 days, Table 3
[4] = tested on: Respiratory syncytial virus (RSV) strain A2; test: RSV antiviral assay (HEp-2, 96 well); settings: read-out: EC50 RSV HEP2 96; HEp-2 cells, RSV A2, MOI=4, 4 days, 96 well; Table 3
[5] = Severe acute respiratory syndrome coronavirus 2, 48 h
[6] = human respiratory syncytial virus, HEp-2, 72 h, read-out: EC50 RSVFluc-Hep2 384, HEp-2 cells, RSV-Luc5, MOI=0.5, 3 days, 384 well
[7] = human respiratory syncytial virus, NHBE, 72 h, read-out: EC50 RSVFluc NHBE 96, NHBE cells, RSV-Fluc, MOI of 0.1, three days, 96 well
[8] = read-out: EC50 RSVFluc-Hep2 384, HEp-2 cells, RSV-Luc5, MOI=0.5, 3 days, 384 well
[9] = read-out: EC50 RSVFluc NHBE 96, NHBE cells, RSV-Fluc, MOI of 0.1, three days, 96 well
[10] = human respiratory syncytial virus, HEp-2, 96 h

Structure (SMILES)	EC50 (SARS-CoV-2; [5])	EC50 [1, 6]	EC50 (SARS-CoV-2)	EC50 [1, 8]	other results
CC(C)C(=O)O[C@H]1[C@@H](OC(=O)C(C)C)[C@](C#N)(c2ccc3c(=N)n(COP(=O)(O)O)cnn23)O[C@@H]1COP(=O)(N[C@@H](C)C(=O)OC1CC2(CCC2)C1)Oc1cccc2ccccc12 (stereo partly drawn) [Example 178, (2R,3R,4R,5R)-2-cyano-2-(4-imino-3-((phosphonooxy)methyl)-3,4-dihydropyrrolo[2,1-f][1,2,4]triazin-7-yl)-5-((((naphthalen-1-yloxy)(((S)-1-oxo-1-(spiro[3.3]heptan-2-yloxy)propan-2-yl)amino)phosphoryl)oxy)methyl)tetrahydrofuran-3,4-diyl bis(2-methylpropanoate)]	1370 nM	85 nM			EC50 [2, 7]: 12.2 nM
CCC(CC)COC(=O)[C@H](C)NP(=O)(OC[C@H]1O[C@@](C#N)(c2ccc3c(N)ncnn23)[C@H](O)[C@@H]1O)Oc1ccc(C(C)(C)C)c2ccccc12 (single isomer, unassigned) [Example 170a]	960 nM	1420 nM			
CCC(CC)COC(=O)[C@H](C)NP(=O)(OC[C@H]1O[C@@](C#N)(c2ccc3c(=N)n(COP(=O)(O)O)cnn23)[C@H](O)[C@@H]1O)Oc1ccc(C(C)(C)C)cc1 (stereo partly drawn) [Example 179, 2-ethylbutyl ((4-(tert-butyl)phenoxy)(((2R,3S,4R,5R)-5-cyano-3,4-dihydroxy-5-(4-imino-3-((phosphonooxy)methyl)-3,4-dihydropyrrolo[2,1-f][1,2,4]triazin-7-yl)tetrahydrofuran-2-yl)methoxy)phosphoryl)-L-alaninate]	850 nM	16.8 nM			EC50 [2, 7]: 7.84 nM
C[C@H](NP(=O)(OC[C@H]1O[C@@](C#N)(c2ccc3c(N)ncnn23)[C@H](O)[C@@H]1O)Oc1ccccc1)C(=O)OC1CC2(CCC2)C1 (single isomer, unassigned) [Example 44b]			130 nM	22.9 nM	EC50 [2, 9]: 12.4 nM
CCC(CC)COC(=O)[C@H](C)NP(=O)(OC[C@H]1O[C@@](C#N)(c2ccc3c(N)ncnn23)[C@H](OC(=O)C(C)C)[C@@H]1OC(=O)C(C)C)Oc1ccc(C(C)(C)C)c2ccccc12 (single isomer, unassigned) [Example 173b]				765 nM	
C[C@H](NP(=O)(OC[C@H]1O[C@@](C#N)(c2ccc3c(N)ncnn23)[C@H](O)[C@@H]1O)Oc1ccccc1)C(=O)OC1CC2(CCC2)C1 (single isomer, unassigned) [Example 44a]	102 nM	21.7 nM			EC50 [2, 7]: 9.13 nM
CC(C)C(=O)O[C@H]1[C@@H](OC(=O)C(C)C)[C@](C#N)(c2ccc3c(N)ncnn23)O[C@@H]1COP(=O)(N[C@@H](C)C(=O)OC1CC2(CCC2)C1)Oc1ccccc1 (single isomer, unassigned) [Example 46a]	249 nM	30.2 nM			EC50 [2, 7]: 5.59 nM
C[C@H](NP(=O)(OC[C@H]1O[C@@](C#N)(c2ccc3c(N)ncnn23)[C@H](O)[C@@H]1O)Oc1ccc(Cl)cc1)C(=O)OC1CCCCCCC1 (single isomer, unassigned) [Example 174a]				7.09 nM	
CCC(CC)COC(=O)[C@H](C)NP(=O)(OC[C@H]1O[C@@](C#N)(c2ccc3c(N)ncnn23)[C@H](OC(C)=O)[C@@H]1OC(C)=O)Oc1ccc(C(C)(C)C)c2ccccc12 (single isomer, unassigned) [Example 171b]			415 nM	537 nM	
CCC(CC)COC(=O)[C@H](C)NP(=O)(OC[C@H]1O[C@@](C#N)(c2ccc3c(N)ncnn23)[C@H](O)[C@@H]1O)Oc1ccc(C(C)(C)C)c2ccccc12 (stereo partly drawn) [Example 170, 2-ethylbutyl ((((2R,3S,4R,5R)-5-(4-aminopyrrolo[2,1-f][1,2,4]triazin-7-yl)-5-cyano-3,4-dihydroxytetrahydrofuran-2-yl)methoxy)((4-(tert-butyl)naphthalen-1-yl)oxy)phosphoryl)-L-alaninate]		1010 nM			
CCC(=O)O[C@H]1[C@@H](OC(=O)CC)[C@](C#N)(c2ccc3c(N)ncnn23)O[C@@H]1COP(=O)(N[C@@H](C)C(=O)OCC(CC)CC)Oc1ccc(C(C)(C)C)c2ccccc12 (single isomer, unassigned) [Example 172a]		750 nM			
CCC(=O)O[C@H]1[C@@H](OC(=O)CC)[C@](C#N)(c2ccc3c(N)ncnn23)O[C@@H]1COP(=O)(N[C@@H](C)C(=O)OCC(CC)CC)Oc1ccc(C(C)(C)C)c2ccccc12 (single isomer, unassigned) [Example 172b]	871 nM			610 nM	
CCC(CC)COC(=O)[C@H](C)NP(=O)(OC[C@H]1O[C@@](C#N)(c2ccc3c(N)ncnn23)[C@H](OC(=O)C(C)C)[C@@H]1OC(=O)C(C)C)Oc1ccc(C(C)(C)C)c2ccccc12 (stereo partly drawn) [Example 173, (2R,3R,4R,5R)-2-(4-aminopyrrolo[2,1-f][1,2,4]triazin-7-yl)-5-(((((4-(tert-butyl)naphthalen-1-yl)oxy)(((S)-1-(2-ethylbutoxy)-1-oxopropan-2-yl)amino)phosphoryl)oxy)methyl)-2-cyanotetrahydrofuran-3,4-diyl bis(2-methylpropanoate)]		798 nM			
CCC(CC)COC(=O)[C@H](C)NP(=O)(OC[C@H]1O[C@@](C#N)(c2ccc3c(N)ncnn23)[C@H](OC(=O)C(C)C)[C@@H]1OC(=O)C(C)C)Oc1ccc(C(C)(C)C)c2ccccc12 (single isomer, unassigned) [Example 173a]	10000 nM	822 nM			
CC(C)C(=O)O[C@H]1[C@@H](OC(=O)C(C)C)[C@](C#N)(c2ccc3c(N)ncnn23)O[C@@H]1COP(=O)(N[C@@H](C)C(=O)OCC1CC1)Oc1ccc(C(C)(C)C)cc1 (stereo partly drawn) [Example 104b, (2R,3R,4R,5R)-2-(4-aminopyrrolo[2,1-f][1,2,4]triazin-7-yl)-5-((((4-(tert-butyl)phenoxy)(((S)-1-(cyclopropylmethoxy)-1-oxopropan-2-yl)amino)phosphoryl)oxy)methyl)-2-cyanotetrahydrofuran-3,4-diyl bis(2-methylpropanoate)]		22.8 nM	294 nM		EC50 [3]: 57.8 nM
CCC(CC)COC(=O)[C@H](C)NP(=O)(OC[C@H]1O[C@@](C#N)(c2ccc3c(N)ncnn23)[C@H](OC(C)=O)[C@@H]1OC(C)=O)Oc1ccc(C(C)(C)C)c2ccccc12 (single isomer, unassigned) [Example 171a]		712 nM	931 nM		
CCC(CC)COC(=O)[C@H](C)NP(=O)(OC[C@H]1O[C@@](C#N)(c2ccc3c(N)ncnn23)[C@H](O)[C@@H]1O)Oc1ccc(C(C)(C)C)c2ccccc12 (single isomer, unassigned) [Example 170b]			923 nM	843 nM	
CCC(=O)O[C@H]1[C@@H](OC(=O)CC)[C@](C#N)(c2ccc3c(N)ncnn23)O[C@@H]1COP(=O)(N[C@@H](C)C(=O)OC1CC2(CCC2)C1)Oc1cccc2ccccc12 (single isomer, unassigned) [Example 87b]			16.3 nM		EC50 [4]: 8.3 nM; EC50 [3, 10]: 44.9 nM; EC50 [2, 7]: 7.36 nM
C[C@H](NP(=O)(OC[C@H]1O[C@@](C#N)(c2ccc3c(=N)n(COP(=O)(O)O)cnn23)[C@H](O)[C@@H]1O)Oc1cccc2ccccc12)C(=O)OC1CC2(CCC2)C1 (stereo partly drawn) [Example 177, spiro[3.3]heptan-2-yl ((((2R,3S,4R,5R)-5-cyano-3,4-dihydroxy-5-(4-imino-3-((phosphonooxy)methyl)-3,4-dihydropyrrolo[2,1-f][1,2,4]triazin-7-yl)tetrahydrofuran-2-yl)methoxy)(naphthalen-1-yloxy)phosphoryl)-L-alaninate]	410 nM	17 nM			EC50 [2, 7]: 16 nM
CC(=O)O[C@H]1[C@@H](OC(C)=O)[C@](C#N)(c2ccc3c(N)ncnn23)O[C@@H]1COP(=O)(N[C@@H](C)C(=O)OCC1CC1)Oc1ccc(C(C)(C)C)cc1 (single isomer, unassigned) [Example 102b]			86 nM	26 nM	EC50 [3]: 43 nM
C[C@H](NP(=O)(OC[C@H]1O[C@@](C#N)(c2ccc3c(=N)n(COP(=O)(O)OCc4ccccc4)cnn23)[C@H](O)[C@@H]1O)Oc1cccc2ccccc12)C(=O)OC1CC2(CCC2)C1 (stereo partly drawn) [Example 176, spiro[3.3]heptan-2-yl ((((2R,3S,4R,5R)-5-(3-((((benzyloxy)(hydroxy)phosphoryl)oxy)methyl)-4-imino-3,4-dihydropyrrolo[2,1-f][1,2,4]triazin-7-yl)-5-cyano-3,4-dihydroxytetrahydrofuran-2-yl)methoxy)(naphthalen-1-yloxy)phosphoryl)-L-alaninate]		153 nM			
CC(C)C(=O)O[C@H]1[C@@H](OC(=O)C(C)C)[C@](C#N)(c2ccc3c(N)ncnn23)O[C@@H]1COP(=O)(N[C@@H](C)C(=O)OC1CC2(CCC2)C1)Oc1ccccc1 (single isomer, unassigned) [Example 46b]			400 nM	30 nM	EC50 [2, 9]: 6.63 nM
CC(=O)O[C@H]1[C@@H](OC(C)=O)[C@](C#N)(c2ccc3c(N)ncnn23)O[C@@H]1COP(=O)(N[C@@H](C)C(=O)OC1CCC1)Oc1ccc(C(C)(C)C)cc1 (single isomer, unassigned) [Example 33a]	134 nM				EC50 [3, 10]: 22.7 nM; EC50 [2, 7]: 9.06 nM
C[C@H](NP(=O)(OC[C@H]1O[C@@](C#N)(c2ccc3c(N)ncnn23)[C@H](O)[C@@H]1O)Oc1ccc(Cl)cc1)C(=O)OC1CCCCCCC1 (single isomer, unassigned) [Example 174b]				62.8 nM	
